Here are results for ten compounds from patent US20260028354A1, “TETRAHYDRONAPHTHALENE DERIVATIVES AS ESTROGEN RECEPTOR DEGRADERS” (REGENT OF THE UNIVERSITY OF MICHIGAN, priority 2022, published 2026).

One experiment has as its target ER in T47D cells (Homo sapiens (Human), UniProt P03372). Briefly: In-cell Western (ICW) ER degradation assay in T47D cells. The settings on record: for DC50: ER degradation. Format: cell-based.
Another experiment deals with ER in MCF-7 cells (Homo sapiens (Human), UniProt P03372). The experiment can be described thus: In-cell Western (ICW) ER degradation assay in MCF-7 cells. Format: cell-based. The settings on record: for DC50: MCF-7, ER degradation, read-out: MCF7 DC50; for MCF7 Dmax: MCF-7, maximal ER degradation.
A further experiment addresses CRBN/DDB1 (Homo sapiens (Human), UniProt Q96SW2). It is filed as binding. The settings on record: His tagged CRBN+DDB1, Cy5-labeled Thalidomide probe, one hour; read-out: CRBN HTRF IC50. As to the method:
The binding potency was determined using HTRF assay technology (Perkin Elmer). Compounds were serially diluted in DMSO and […] volume was transferred to white 384-well plate.

[1] abbreviates: read-out: T47D Dmax, T47D, maximal ER degradation, 16 hrs treatment.
Setting [2] is: MCF7, read-out: MCF7 Dmax, MCF-7, maximal ER degradation, 16 hrs treatment.
[3] abbreviates: maximal ER degradation, 16 hrs treatment, read-out: T47D Dmax.
The mark [4] stands for this setting: MCF7, MCF-7, maximal ER degradation, 16 hrs treatment, read-out: MCF7 Dmax.

The structures appear in SMILES notation. Where two headings read alike, the source gives them in different places.

Chain of CRBN/DDB1 (Q96SW2 whole entry, species assumed): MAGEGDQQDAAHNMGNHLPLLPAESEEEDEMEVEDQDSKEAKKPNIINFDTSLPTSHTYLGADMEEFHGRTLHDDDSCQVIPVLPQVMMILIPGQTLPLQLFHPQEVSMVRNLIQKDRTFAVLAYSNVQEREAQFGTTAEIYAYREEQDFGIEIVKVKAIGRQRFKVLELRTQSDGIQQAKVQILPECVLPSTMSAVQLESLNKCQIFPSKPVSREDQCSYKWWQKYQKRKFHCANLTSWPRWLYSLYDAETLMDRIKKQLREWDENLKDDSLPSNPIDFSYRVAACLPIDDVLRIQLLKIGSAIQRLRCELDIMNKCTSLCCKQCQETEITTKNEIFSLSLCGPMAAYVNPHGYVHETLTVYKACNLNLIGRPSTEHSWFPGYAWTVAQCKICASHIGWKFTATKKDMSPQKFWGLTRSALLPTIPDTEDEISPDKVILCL
Chain of CRBN/DDB1 (Q16531 whole entry partner, species assumed): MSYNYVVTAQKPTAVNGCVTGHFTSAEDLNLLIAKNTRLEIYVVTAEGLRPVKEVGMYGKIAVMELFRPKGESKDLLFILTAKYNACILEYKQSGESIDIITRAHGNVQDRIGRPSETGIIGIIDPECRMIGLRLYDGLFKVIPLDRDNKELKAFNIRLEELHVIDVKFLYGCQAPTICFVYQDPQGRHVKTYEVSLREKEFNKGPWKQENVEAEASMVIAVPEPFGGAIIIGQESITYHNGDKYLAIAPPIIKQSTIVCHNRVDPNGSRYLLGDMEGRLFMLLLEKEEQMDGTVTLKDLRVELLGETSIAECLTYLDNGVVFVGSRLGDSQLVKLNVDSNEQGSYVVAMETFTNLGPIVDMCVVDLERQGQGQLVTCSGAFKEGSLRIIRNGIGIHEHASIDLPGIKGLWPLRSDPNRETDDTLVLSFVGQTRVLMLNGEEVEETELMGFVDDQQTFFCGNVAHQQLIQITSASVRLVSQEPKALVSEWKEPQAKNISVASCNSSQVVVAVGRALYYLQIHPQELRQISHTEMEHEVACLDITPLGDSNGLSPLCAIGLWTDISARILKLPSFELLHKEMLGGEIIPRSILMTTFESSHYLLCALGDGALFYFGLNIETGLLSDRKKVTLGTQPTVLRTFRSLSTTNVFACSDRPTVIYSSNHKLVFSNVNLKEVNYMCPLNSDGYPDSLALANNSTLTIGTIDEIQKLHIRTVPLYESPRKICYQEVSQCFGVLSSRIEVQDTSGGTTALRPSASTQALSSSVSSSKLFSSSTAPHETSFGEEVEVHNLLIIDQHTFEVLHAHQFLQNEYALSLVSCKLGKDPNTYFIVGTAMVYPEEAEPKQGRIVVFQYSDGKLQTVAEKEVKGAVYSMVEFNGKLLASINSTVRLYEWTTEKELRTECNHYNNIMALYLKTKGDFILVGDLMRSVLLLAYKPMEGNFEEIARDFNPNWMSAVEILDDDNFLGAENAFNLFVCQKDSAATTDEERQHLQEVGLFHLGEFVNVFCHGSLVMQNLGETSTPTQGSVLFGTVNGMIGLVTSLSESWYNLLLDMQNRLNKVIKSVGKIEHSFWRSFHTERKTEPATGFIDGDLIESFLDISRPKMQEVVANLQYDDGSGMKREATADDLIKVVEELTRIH
Chain of ER in T47D cells (P03372 whole entry): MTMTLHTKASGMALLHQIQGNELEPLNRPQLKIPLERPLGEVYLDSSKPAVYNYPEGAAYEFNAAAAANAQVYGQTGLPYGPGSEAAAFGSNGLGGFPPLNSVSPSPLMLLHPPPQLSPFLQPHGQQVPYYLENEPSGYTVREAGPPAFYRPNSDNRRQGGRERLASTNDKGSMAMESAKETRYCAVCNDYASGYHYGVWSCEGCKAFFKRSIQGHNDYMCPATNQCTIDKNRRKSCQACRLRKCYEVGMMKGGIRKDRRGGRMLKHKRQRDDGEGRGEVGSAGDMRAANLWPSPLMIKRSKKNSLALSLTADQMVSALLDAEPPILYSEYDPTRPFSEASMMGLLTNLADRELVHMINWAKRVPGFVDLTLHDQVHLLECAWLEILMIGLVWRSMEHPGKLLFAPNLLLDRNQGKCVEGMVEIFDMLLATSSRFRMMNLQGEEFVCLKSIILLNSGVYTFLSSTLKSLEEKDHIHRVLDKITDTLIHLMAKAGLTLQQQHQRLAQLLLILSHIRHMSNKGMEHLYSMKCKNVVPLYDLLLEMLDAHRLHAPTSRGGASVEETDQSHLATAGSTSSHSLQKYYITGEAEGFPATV
Chain of ER in MCF-7 cells (P03372 whole entry): as above

`O=C1CC[C@@H](Nc2ccc([C@@]34CCN(CC5CCC6(CC5)CN(c5ccc([C@@H]7c8ccc(O)cc8CC[C@@H]7c7ccccc7)cc5)C6)C[C@@H]3C4(F)F)cc2)C(=O)N1` [Compound A64, (R)-3-((4-((1R,6R)-7,7-difluoro-3-((2-(4-((1R,2S)-6-hydroxy-2-phenyl-1,2,3,4-tetra-hydronaphthalen-1-yl)phenyl)-2-azaspiro[3.5]nonan-7-yl)-methyl)-3-azabicyclo[4.1.0]heptan-6-yl)phenyl)amino)-piperidine-2,6-dione]: the DC50 at ER in T47D cells (16 hrs treatment) and at ER in MCF-7 cells (16 hrs treatment) was 0.001 to 0.01 µM each time. In addition, the Dmax on ER in T47D cells (setting [1]) and on ER in MCF-7 cells (setting [2]) was 50 to 75% throughout. In addition, at CRBN/DDB1, the IC50 was > 5 µM.

`O=C1CC[C@@H](Nc2ccc([C@@]34CCN(CC5CC6(CCN(c7ccc([C@@H]8c9ccc(O)cc9CC[C@@H]8c8ccccc8)cc7)CC6)C5)C[C@@H]3C4(F)F)cc2)C(=O)N1` [Compound A67, (R)-3-((4-((1R,6R)-7,7-difluoro-3-((7-(4-((1R,2S)-6-hydroxy-2-phenyl-1,2,3,4-tetrahydronaphthalen-1-yl)-phenyl)-7-azaspiro[3.5]nonan-2-yl)methyl)-3-azabicyclo [4.1.0]heptan-6-yl)phenyl)-amino)piperidine-2,6-dione]: the DC50 at ER in T47D cells (16 hrs treatment) and on ER in MCF-7 cells (16 hrs treatment) was 0.001 to 0.01 µM in each case. Moreover, the Dmax at ER in T47D cells (setting [1]) and on ER in MCF-7 cells (setting [2]) was 50 to 75% throughout. Moreover, the IC50 at CRBN/DDB1 is > 5 µM.

On to `COc1cc(N2CCC(CN3CC[C@]4(c5ccc(N[C@@H]6CCC(=O)NC6=O)cc5)[C@H](C3)C4(F)F)CC2)ccc1[C@@H]1c2ccc(O)cc2CC[C@@H]1c1ccccc1` [Compound A89, (R)-3-((4-((1R,6R)-7,7-difluoro-3-((1-(4-((1S,2S)-6-hydroxy-2-phenyl-1,2,3,4-tetra-hydronaphthalen-1-yl)-3-meth-oxyphenyl)piperidin-4-yl)meth-yl)-3-azabicyclo[4.1.0]heptan-6-yl)phenyl)amino)-piperidine-2,6-dione], for which the DC50 on ER in T47D cells (16 hrs treatment) and at ER in MCF-7 cells (16 hrs treatment) was < 0.001 µM each time. The Dmax at ER in T47D cells (setting [1]) and on ER in MCF-7 cells (setting [2]) was 25 to 50% each time. Further, the IC50 at CRBN/DDB1 is > 5 µM.

Consider `COc1cc(N2CCC(CN3CC[C@]4(c5ccc(N[C@H]6CCC(=O)NC6=O)cc5)[C@H](C3)C4(F)F)CC2)ccc1[C@@H]1c2ccc(O)cc2CC[C@@H]1c1ccccc1` [Compound A90, (S)-3-((4-((1R,6R)-7,7-difluoro-3-((1-(4-((1S,2S)-6-hydroxy-2-phenyl-1,2,3,4-tetra-hydronaphthalen-1-yl)-3-meth-oxyphenyl)piperidin-4-yl)meth-yl)-3-azabicyclo[4.1.0]heptan-6-yl)phenyl)amino)piperidine-2,6-dione], for which the DC50 at ER in T47D cells (16 hrs treatment) and at ER in MCF-7 cells (16 hrs treatment) was < 0.001 µM in each case. The Dmax at ER in T47D cells (setting [1]) and on ER in MCF-7 cells (setting [2]) was 25 to 50% in each case. Moreover, the 50% inhibitory concentration (IC50) on CRBN/DDB1 is > 5 µM.

Take `COc1cc(N2CCC(CN3CC[C@@]4(c5ccc(N[C@H]6CCC(=O)NC6=O)cc5)C(C3)C4(F)F)CC2)ccc1[C@@H]1c2ccc(O)cc2CC[C@@H]1c1ccccc1` (stereo partly drawn) [Compound A92, (3S)-3-((4-((1R)-7,7-difluoro-3-((1-(4-((1S,2S)-6-hydroxy-2-phenyl-1,2,3,4-tetrahydronaph-thalen-1-yl)-3-methoxyphenyl)-piperidin-4-yl)methyl)-3-azabi-cyclo[4.1.0]heptan-6-yl)phen-yl)amino)piperidine-2,6-dione]: the DC50 is 0.001 to 0.01 µM at ER in T47D cells (16 hrs treatment) and < 0.001 µM on ER in MCF-7 cells (16 hrs treatment). The Dmax at ER in T47D cells (setting [1]) and at ER in MCF-7 cells (setting [2]) was 25 to 50% each time. On CRBN/DDB1, the IC50 was > 5 µM.

As for `COc1cc(N2CCC(CN3CCC4(CC3)COc3c4ccc4c3CN([C@H]3CCC(=O)NC3=O)C4=O)CC2)c(F)cc1[C@@H]1c2ccc(O)cc2CC[C@@H]1c1ccccc1` [Compound A93, (S)-3-(1′-((1-(2-fluoro-4-((1S,2S)-6-hydroxy-2-phenyl-1,2,3,4-tetrahydronaphthalen-1-yl)-5-methoxyphenyl)piperidin-4-yl)methyl)-6-oxo-6,8-dihydro-2H,7H-spiro[furo[2,3-e]isoindole-3,4′-piperidin]-7-yl)piperidine-2,6-dione], the DC50 at ER in T47D cells (16 hrs treatment) and on ER in MCF-7 cells (16 hrs treatment) was < 0.001 µM each time. In addition, the Dmax on ER in T47D cells (setting [1]) and on ER in MCF-7 cells (setting [2]) was 50 to 75% in each case. In addition, the IC50 at CRBN/DDB1 was < 0.05 µM.

`COc1cc(N2CCC3(CC2)CC(CN2CCN4c5ccc(C(=O)N[C@H]6CCC(=O)NC6=O)nc5OC[C@@H]4C2)C3)c(F)cc1[C@@H]1c2ccc(O)cc2CC[C@@H]1c1ccccc1` [Compound A104, (S)-N-((S)-2,6-dioxopiperidin-3-yl)-3-((7-(2-fluoro-4-((1S,2S)-6-hydroxy-2-phenyl-1,2,3,4-tetrahydronaphthalen-1-yl)-5-methoxyphenyl)-7-azaspiro[3.5]nonan-2-yl)methyl)-1,2,3,4,4a,5-hexahydropyrazino[1,2-d]pyrido[2,3-b][1,4]oxazine-8-carboxamide]: the DC50 at ER in T47D cells (16 hrs treatment) was < 0.001 µM; at ER in MCF-7 cells (16 hrs treatment), 0.001 to 0.01 µM. The Dmax is > 75% at ER in T47D cells (setting [3]) and 50 to 75% on ER in MCF-7 cells (setting [4]). Further, the IC50 at CRBN/DDB1 was > 5 µM.

Turning to `COc1cc(N2CCC3(CC2)CC(CN2CCN4c5ccc(C(=O)N[C@H]6CCC(=O)NC6=O)nc5OC[C@H]4C2)C3)c(F)cc1[C@@H]1c2ccc(O)cc2CC[C@@H]1c1ccccc1` [Compound A111, (R)-N-((S)-2,6-dioxopiperidin-3-yl)-3-((7-(2-fluoro-4-((1S,2S)-6-hydroxy-2-phenyl-1,2,3,4-tetrahydronaphthalen-1-yl)-5-methoxyphenyl)-7-azaspiro[3.5]nonan-2-yl)methyl)-1,2,3,4,4a,5-hexahydropyrazino[1,2-d]pyrido[2,3-b][1,4]oxazine-8-carboxamide], the DC50 on ER in T47D cells (16 hrs treatment) and at ER in MCF-7 cells (16 hrs treatment) was 0.001 to 0.01 µM each time. In addition, the Dmax at ER in T47D cells (setting [3]) was > 75%; on ER in MCF-7 cells (setting [4]), 50 to 75%. The IC50 at CRBN/DDB1 is > 5 µM.

Consider `O=C1CC[C@H](N2Cc3cc4c(cc3C2=O)OC[C@@H]2CN(CC3CCC5(CC3)CN(c3ccc([C@@H]6c7ccc(O)cc7CC[C@@H]6c6ccccc6)cn3)C5)CCN42)C(=O)N1` [Compound A124, (S)-3-((S)-3-((2-(5-((1S,2S)-6-hydroxy-2-phenyl-1,2,3,4-tetrahydronaphthalen-1-yl)pyridin-2-yl)-2-azaspiro[3.5]nonan-7-yl)methyl)-8-oxo-1,2,3,4,4a,5,8,10-octahydro-9H-pyrazino[1′,2′: 4,5][1,4]oxazino[2,3-f]isoindol-9-yl)piperidine-2,6-dione], for which the DC50 on ER in T47D cells (16 hrs treatment) was in the range of 0.01 to 0.1 µM. For the same compound, on ER in T47D cells (setting [3]), the Dmax was in the range of 50 to 75%. In addition, on ER in MCF-7 cells (16 hrs treatment), the 50% degradation concentration (DC50) lay within 0.01 to 0.1 µM; the “MCF7 Dmax” value was “B (“B”: >50 and <75%)”. The IC50 on CRBN/DDB1 lay within 0.5 to 5 µM.

As for `O=C1CC[C@H](N2Cc3cc4c(cc3C2=O)OCC42CCN(CC3CC4(CCN(c5ccc([C@@H]6c7ccc(O)cc7CC[C@@H]6c6ccccc6)cn5)CC4)C3)CC2)C(=O)N1` [Compound A126, (S)-3-(1′-((7-(5-((1S,2S)-6-hydroxy-2-phenyl-1,2,3,4-tetra-hydronaphthalen-1-yl)pyridin-2-yl)-7-azaspiro[3.5]nonan-2-yl)methyl)-7-oxo-5,7-dihydro-2H,6H-spiro[furo[2,3-f]iso-indole-3,4′-piperidin]-6-yl)-piperidine-2,6-dione], the DC50 at ER in T47D cells (16 hrs treatment) is < 0.001 µM. Also, the “T47D Dmax” value at ER in T47D cells (maximal ER degradation, 16 hrs treatment) is “A (“A”: >=75%)”. For the same compound, at ER in MCF-7 cells (16 hrs treatment), the DC50 is < 0.001 µM; the “MCF7 Dmax” value was “B (“B”: >50 and <75%)”. For the same compound, the IC50 at CRBN/DDB1 was in the range of 0.05 to 0.5 µM.
